Tests used:
[1] = Protocol 1: dissolving BIT in basic solution (exotherm peak, pH, dissolution and inherent precipitation temperature); type: physicochemical
Excerpt: “Protocol 1” means the following: A mixture (herein “mixture 1”) was formed as follows: 151.18 g of BIT paste (concentration 83% to 85% BIT by weight based on the weight of the paste) was mixed with basic solution and with water. The amount of basic solution was chosen to have equivalent ratio of 1:1 with BIT, and the amount of water was chosen to make Mixture 1 have the desired concentration of BIT. In some cases, the process of mixing the ingredients of Mixture 1 is exothermic; in such cases, the peak temperature reached by the mixture was recorded as the “exotherm peak.” From that mixture, a sample of 100 g (herein the “test1 batch”) was used. If some or all of the BIT was not dissolved, the test1 batch was heated (up to a maximum of 61° C.), and if there was a temperature of 61° C. or below at which all the BIT was dissolved, that temperature was recorded as the “dissolution temperature.” If BIT is all dissolved at ambient temperature, the dissolution temperature is herein taken to be 23° C. Then, the inherent precipitation temperature was observed by cooling the test 1 batch to 0° C. or to a point at which BIT precipitated, whichever temperature is higher. Then, the test 1 batch was heated to a temperature (herein “T2”) at or above the dissolution temperature; while the solution was at temperature T2, thickener was added and acid solution was added.
In some of the Examples below, Protocol 1 was performed repeatedly, using various basic solutions and various concentrations of BIT. The purpose of these repeated performances of Protocol 1 was to answer the following question: “While using a specific basic solution and using temperatures between approximately 23° C. and approximately 60° C., when making aqueous mixture (I), what range of BIT concentration is possible?”

[2] = pH 7.5 or lower; cited from earlier work

For `O=c1[nH]sc2ccccc12` [BIT, 1,2-Benzisothiazolin-3-one], the “BIT concentration range for making aqueous mixture (I)” value (shortened to “BIT concentration range”) ([1]; using ammonia) was 5%, the “BIT concentration range” value ([1]; using diaminoethane) was 5% and the “BIT concentration range” value ([1]; using mono-ethanolamine) was 5%. For the same compound, the solubility in water [2] was “low solubility”.

Reference: patent publication US20170339957A1, “AQUEOUS DISPERSIONS” (Rohm and Haas Company, priority 2011, published 2017)
